ChEMBL document CHEMBL1201862, “PubChem BioAssay data set” (2004)
Where “and” joins values, the source holds several entries; their conditions need not be identical. Equal entries are not always repeated. Calls of active or inactive are those of the source.

Tests used:
[1] = biological target: T1, Ubiquitin-conjugating enzyme E2 N (Homo sapiens, UniProt P61088); assay type: functional;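 further: Dose-response confirmation in a TR-FRET assay detecting UBC13-driven polyubiquitin chain formation, inhibition measured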
T1 sequence (P61088 whole entry): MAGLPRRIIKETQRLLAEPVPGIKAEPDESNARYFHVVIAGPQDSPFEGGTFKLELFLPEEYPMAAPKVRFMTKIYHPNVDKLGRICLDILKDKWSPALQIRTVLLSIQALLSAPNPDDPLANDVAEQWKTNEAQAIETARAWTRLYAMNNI

[2] = viability of uninfected HEp-2 cells – cell-based, HTS, cytotoxicity control for RSV inhibitor project, dose response (AID 2410); assay type: functional; settings: human respiratory syncytial virus
[3] = biological target: FAD-linked sulfhydryl oxidase ALR (Homo sapiens, UniProt P55789); assay: ALR-catalysed DTT oxidation blockers – biochemical, H2O2 detection, luminescence, cherry-pick, dose response (AID 493248)
Chain of FAD-linked sulfhydryl oxidase ALR (P55789 whole entry): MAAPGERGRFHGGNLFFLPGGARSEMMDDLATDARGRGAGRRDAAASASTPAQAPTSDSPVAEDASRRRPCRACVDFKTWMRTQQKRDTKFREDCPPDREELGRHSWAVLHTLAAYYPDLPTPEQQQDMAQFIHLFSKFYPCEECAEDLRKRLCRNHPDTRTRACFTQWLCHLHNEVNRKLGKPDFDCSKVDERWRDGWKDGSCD

[4] = tested on: Streptococcus sp. 'group A'; assay: Streptococcus pyogenes SK(-)GAS viability under kanamycin – luminescence, BacTiterGlo, confirmation, counter-screen for streptokinase expression inhibitor project, dose response (AID 1900); assay type: functional, organism-based
Streptococcus = assay: GAS UMAA2166 growth inhibition – luminescence, BacTiterGlo, counter-screen for streptokinase expression inhibitor project, dose response (AID 1915); assay type: functional, organism-based;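 further: potency for reduction of bacterial viability or growth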
[5] = NIH3T3 cell viability loss – ATP luminescence, mouse fibroblasts, counter-screen, dose response (AID 2010); assay type: functional, cell-based;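 further: cells exposed to compound for about 90 hours before reading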
[6] = Trypanosoma cruzi growth suppression in host cells – NIH3T3 host cells, beta-gal luminescence, confirmation (AID 2044); assay type: functional, cell-based;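 further: intracellular parasites grown in NIH/3T3 mouse fibroblasts as host cells; luminescent beta-galactosidase reporter signal from transgenic T. cruzi replicating inside host cells; inhibitors lower the luminescence signal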
Streptokinase A = biological target: T2, Streptokinase A (Streptococcus pyogenes serotype M1, UniProt P10520); assay: viability-normalized secreted streptokinase activity reduction – plasminogen activation absorbance, OD405, dose response (AID 1914); assay type: functional, Streptococcus pyogenes M1 GAS;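 further: secreted streptokinase activity via plasminogen activation per viability signal from cell pellet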
T2 sequence (P10520 whole entry): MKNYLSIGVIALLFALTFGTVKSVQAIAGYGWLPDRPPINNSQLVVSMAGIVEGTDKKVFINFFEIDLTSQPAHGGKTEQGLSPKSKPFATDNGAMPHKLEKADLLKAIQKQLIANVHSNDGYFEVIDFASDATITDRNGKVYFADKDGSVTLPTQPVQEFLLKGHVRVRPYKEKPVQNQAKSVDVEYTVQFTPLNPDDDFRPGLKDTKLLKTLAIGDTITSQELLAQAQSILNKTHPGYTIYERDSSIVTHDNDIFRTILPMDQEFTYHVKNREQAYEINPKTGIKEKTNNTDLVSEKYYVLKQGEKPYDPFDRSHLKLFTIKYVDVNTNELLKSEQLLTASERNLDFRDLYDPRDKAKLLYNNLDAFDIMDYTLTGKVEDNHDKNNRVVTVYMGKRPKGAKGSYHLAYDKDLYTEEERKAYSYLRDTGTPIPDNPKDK

Large T antigen = Large T antigen (Simian virus 40, UniProt P03070); assay type: functional, Betapolyomavirus macacae;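 further: Confirmatory-stage PubChem screen for compounds that inhibit SV40 T antigen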
Chain of Large T antigen (P03070 whole entry): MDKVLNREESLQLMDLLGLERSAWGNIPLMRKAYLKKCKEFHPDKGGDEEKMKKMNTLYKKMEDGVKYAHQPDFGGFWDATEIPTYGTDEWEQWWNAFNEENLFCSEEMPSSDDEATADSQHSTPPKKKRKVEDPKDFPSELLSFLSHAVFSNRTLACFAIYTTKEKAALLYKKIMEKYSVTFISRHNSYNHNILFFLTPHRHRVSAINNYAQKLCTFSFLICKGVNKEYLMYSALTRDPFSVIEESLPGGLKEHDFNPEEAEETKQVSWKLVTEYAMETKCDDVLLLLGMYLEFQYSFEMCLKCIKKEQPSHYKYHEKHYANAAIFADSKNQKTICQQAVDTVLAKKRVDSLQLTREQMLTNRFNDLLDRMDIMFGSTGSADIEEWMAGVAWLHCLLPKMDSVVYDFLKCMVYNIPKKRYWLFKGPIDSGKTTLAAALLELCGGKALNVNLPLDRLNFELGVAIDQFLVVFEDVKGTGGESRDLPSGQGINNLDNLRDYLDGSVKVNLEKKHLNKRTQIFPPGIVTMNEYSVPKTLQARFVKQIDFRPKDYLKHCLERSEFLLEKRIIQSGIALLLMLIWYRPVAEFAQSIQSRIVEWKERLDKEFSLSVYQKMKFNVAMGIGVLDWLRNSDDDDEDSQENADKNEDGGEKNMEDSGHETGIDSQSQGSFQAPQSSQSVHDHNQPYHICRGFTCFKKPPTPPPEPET

H9c2 = assay: cells; assay type: functional, cell-based; settings: Rattus norvegicus, H9c2, Myocardium;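 further: confirmatory concentration-response retest of ultra-high-throughput screening hits for modulation of myocardial damage; cell death induced by hydrogen peroxide oxidative stress; compound pretreatment for 60 min then peroxide exposure for 2 h; potency is for protecting the cells against peroxide damage rather than for killing them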
[7] = viability of PTEN-deleted HCT116 cells – cell-based, HCT116 PTEN knockout, dose response (AID 1047); assay type: functional;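 further: HCT116 colon tumor cells with PTEN knocked out; cells exposed to compound for 60 hours before readout; potency for loss of cell viability measured by luminescence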
[8] = viability of HCT116 lacking mutant beta-catenin – cell-based, human colon tumor, dose response (AID 1045); assay type: functional;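 further: HCT116 colon tumor cells with beta catenin knocked out; cells exposed to compound for 60 hours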
[9] = biological target: T3, Corticotropin-releasing factor receptor 2/Corticotropin-releasing factor-binding protein (Homo sapiens, UniProt P24387+Q13324); assay: activators of CRF receptor 2 with binding protein – uHTS hits, confirmation (AID 602473); assay type: functional; settings: read-out: EC50_Mean
T3 sequence (Q13324 whole entry): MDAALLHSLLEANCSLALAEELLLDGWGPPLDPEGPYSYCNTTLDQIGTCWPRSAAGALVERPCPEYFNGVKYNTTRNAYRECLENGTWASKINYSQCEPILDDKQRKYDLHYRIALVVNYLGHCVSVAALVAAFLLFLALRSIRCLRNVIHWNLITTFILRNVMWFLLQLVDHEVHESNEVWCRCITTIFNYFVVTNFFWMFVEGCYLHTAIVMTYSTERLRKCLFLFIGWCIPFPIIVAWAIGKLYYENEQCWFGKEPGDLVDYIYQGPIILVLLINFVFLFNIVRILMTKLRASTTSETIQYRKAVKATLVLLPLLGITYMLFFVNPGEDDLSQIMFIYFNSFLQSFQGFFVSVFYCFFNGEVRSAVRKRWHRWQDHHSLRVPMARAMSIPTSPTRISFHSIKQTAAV
T3 sequence (P24387 whole entry): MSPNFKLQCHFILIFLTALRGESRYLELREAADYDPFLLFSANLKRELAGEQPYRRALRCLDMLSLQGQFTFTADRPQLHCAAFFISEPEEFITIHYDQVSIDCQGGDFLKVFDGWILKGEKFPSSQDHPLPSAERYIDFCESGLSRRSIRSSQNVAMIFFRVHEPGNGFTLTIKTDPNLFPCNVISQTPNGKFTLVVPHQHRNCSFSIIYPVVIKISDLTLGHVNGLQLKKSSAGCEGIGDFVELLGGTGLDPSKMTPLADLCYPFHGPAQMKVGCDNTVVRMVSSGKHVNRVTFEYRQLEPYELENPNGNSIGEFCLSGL

[10] = biological target: T3, Corticotropin-releasing factor receptor 2/Corticotropin-releasing factor-binding protein; assay: Dose Response confirmation of uHTS hits for small molecule antagonists of the CRF-binding protein and CRF-R2 receptor complex.; assay type: functional; settings: read-out: IC50_Mean
[11] = biological target: T4, Rac GTPase-activating protein 1 (Homo sapiens, UniProt Q9H0H5); assay: blockers of MgcRacGAP-driven Rac1 GTP hydrolysis – biochemical, ADP Hunter fluorescence, primary and confirmatory, confirmation (AID 624330); assay type: functional
T4 sequence (Q9H0H5 whole entry): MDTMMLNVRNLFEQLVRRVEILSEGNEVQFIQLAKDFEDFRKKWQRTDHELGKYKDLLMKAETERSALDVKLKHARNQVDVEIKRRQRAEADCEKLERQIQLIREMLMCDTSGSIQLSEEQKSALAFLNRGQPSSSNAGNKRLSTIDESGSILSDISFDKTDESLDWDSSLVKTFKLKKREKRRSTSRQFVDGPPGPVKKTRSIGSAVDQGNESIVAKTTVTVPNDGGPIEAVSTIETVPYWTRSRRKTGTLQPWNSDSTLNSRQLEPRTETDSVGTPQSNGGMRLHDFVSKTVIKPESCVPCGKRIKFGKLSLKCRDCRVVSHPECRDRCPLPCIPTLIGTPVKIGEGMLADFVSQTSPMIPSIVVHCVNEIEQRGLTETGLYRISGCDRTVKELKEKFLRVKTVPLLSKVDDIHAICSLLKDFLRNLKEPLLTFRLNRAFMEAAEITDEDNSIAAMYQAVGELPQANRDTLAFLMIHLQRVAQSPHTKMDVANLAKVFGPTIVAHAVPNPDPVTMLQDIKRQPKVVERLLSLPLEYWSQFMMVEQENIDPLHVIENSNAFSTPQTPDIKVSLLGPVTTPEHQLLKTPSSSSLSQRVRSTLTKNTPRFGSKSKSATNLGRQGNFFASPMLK

[12] = biological target: T5, Heat shock factor protein 1 (Mus musculus, UniProt P38532); assay: enhancement of HSF1-driven luciferase signal – cell-based, NIH3T3, luminescence, dose retest, confirmation (AID 435004); assay type: functional;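 further: stress induced by proteasome inhibitor MG132 added 30 min after compound; luciferase reporter driven by HSF1 response element in NIH3T3 cells; actives raise luminescence as potentiators of the MG132 stress response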
T5 sequence (P38532 whole entry): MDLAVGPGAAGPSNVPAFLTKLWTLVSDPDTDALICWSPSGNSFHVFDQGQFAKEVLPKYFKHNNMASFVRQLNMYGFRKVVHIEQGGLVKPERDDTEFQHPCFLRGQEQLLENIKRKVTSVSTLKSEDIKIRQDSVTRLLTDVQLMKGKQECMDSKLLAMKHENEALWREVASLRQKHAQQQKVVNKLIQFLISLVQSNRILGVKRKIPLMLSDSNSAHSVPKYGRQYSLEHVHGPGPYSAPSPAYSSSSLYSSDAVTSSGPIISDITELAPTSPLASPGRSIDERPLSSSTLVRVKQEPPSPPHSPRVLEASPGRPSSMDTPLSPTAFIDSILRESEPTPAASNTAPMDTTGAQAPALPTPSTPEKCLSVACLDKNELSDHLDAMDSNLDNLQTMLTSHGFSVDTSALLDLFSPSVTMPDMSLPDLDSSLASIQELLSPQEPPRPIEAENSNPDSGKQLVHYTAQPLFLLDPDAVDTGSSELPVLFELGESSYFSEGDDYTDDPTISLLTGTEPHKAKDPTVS

[13] = reduction of Shn3 3'UTR-driven luciferase in osteoblasts – cell-based, Clone20 osteoblasts, firefly luciferase, cherry-picked, dose response (AID 624132); assay type: functional;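 further: firefly luciferase luminescence from reporter carrying the Shn3 3'UTR in osteoblasts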

SMILES: CNCC(O)c1cc(OCc2ccccc2)c(OCc2ccccc2)cc1F (stereo not drawn)
- IC50 [1]: > 20 µM (inactive)
- CC50 [2]: 22.3 µM (active)

SMILES: CCCCNC(=O)c1onc(CSc2ccc(C)c(C)c2)c1C(=O)O
- AC50 [3]: 8.26 µM (active)

SMILES: O=C(C[N+]1=C2SC=C(c3ccccc3)N2CC1)c1ccc(Br)cc1
- AC50 [3]: 0.221 µM (active)

SMILES: C=CCn1c(NC(=O)c2ccc(C)cc2)nc2ccccc21
- IC50 [1]: > 20 µM (inactive)
- EC50 [4]: 84.6 µM (active)
- EC50 (Streptococcus): > 150 µM (not active)
- EC50 [5]: > 60 µM (not active)
- EC50 [6]: 2.11 µM (active)
- EC50 (Streptokinase A): > 150 µM (not active)

SMILES: O=S(=O)(NNc1ccc(F)cc1F)c1cccc(Cl)c1
- AC50 [3]: 1.35 µM (active)

SMILES: CC(=O)Oc1ccc(C(=O)OCC(=O)c2c(N)n(C)c(=O)n(C)c2=O)cc1OC(C)=O
- IC50 (Large T antigen): 8.56 µM (active)
- IC50 (H9c2): 6.29 µM (active)

SMILES: CCN(CC)S(=O)(=O)c1cc(C(=O)Nc2cc(Cl)ccc2N2CCN(C)CC2)ccc1Cl
- EC50 [7]: 13.3 µM (active)
- EC50 [8]: 15.8 µM (active)

SMILES: Cc1ccc(C23CC4CC(CC(NC(=O)NCCN(C)C)(C4)C2)C3)cc1
- EC50 [7]: 20.9 µM (active)
- EC50 [5]: > 60 µM (not active)
- EC50 [8]: 17.9 µM (active)
- EC50 [6]: 0.948 µM (active)

SMILES: Cc1cccc2sc(N(CCN3CCOCC3)C(=O)CCS(=O)(=O)c3ccccc3)nc12
- IC50 [1]: > 20 µM (inactive)

SMILES: N#Cc1c(N)nc(SC2CCCCC2=O)c(C#N)c1-c1ccco1 (stereo not drawn)
- EC50 [9]: > 53 µM (inactive)
- IC50 [10]: < 0.368 µM (active)

SMILES: CN(C)c1ccc(NS(=O)(=O)c2ccc(Cl)cc2)cc1
- IC50 [11]: 30.6 µM (active)
- IC50 (Large T antigen): 11.7 µM (active)

SMILES: Cc1cccc(OCC(O)CN2CCN(CCN3C(=O)c4cccc5cccc(c45)C3=O)CC2)c1C (stereo not drawn)
- IC50 [1]: > 20 µM (inactive)
- EC50 [5]: 8.54 µM (active)
- EC50 [6]: 2.14 µM (active)

SMILES: CC(=O)N1CCC2(CC1)NC(=O)N(c1ccccc1)N2
- EC50 [12]: 136 µM (active)
- AC50 [3]: 5 µM (active)

SMILES: Cc1ccnc(-n2c(C)cc(/C=C3\C(=O)NC(=S)N(C)C3=O)c2C)c1
- EC50 [7]: 95.3 µM (active)
- EC50 [8]: 65.8 µM (active)

SMILES: Cc1ccc(S(=O)(=O)N2CCCC(C(=O)NNCC(=O)Nc3cc(F)ccc3F)C2)cc1 (stereo not drawn)
- IC50 [1]: > 20 µM (inactive)

SMILES: O=C(NCCCn1ccnc1)c1nn2c(C(F)(F)F)cc(-c3ccc(Br)cc3)nc2c1Cl
- EC50 [7]: 16.8 µM (active)
- EC50 [8]: 33.2 µM (active)

SMILES: N#C/C(=C\c1cccn1-c1ccccc1)C(=O)NC1CCCCC1
- EC50 [9]: > 53 µM (inactive)
- IC50 [10]: > 47.1 µM (inactive)

SMILES: Cc1ccc[n+](CC(=O)Nc2ccc(N(C)C)cc2)c1
- IC50 [11]: 113 µM (active)
- AC50 [3]: 2.2 µM (active)

SMILES: CCCn1nc(C(=O)Nc2cc(S(=O)(=O)Nc3ccc(OC)cc3)ccc2O)c2ccccc2c1=O
- EC50 [9]: > 53 µM (inactive)
- IC50 [10]: > 47.1 µM (inactive)

SMILES: Cc1ccc(OC(=O)CCC(=O)Oc2ccc(C)cc2C)c(C)c1
- AC50 [13]: 3.51 µM (active)

SMILES: O=C(CC(NC(=O)OCc1ccccc1)C(=O)OCc1ccccc1)OCc1ccccc1 (stereo not drawn)
- EC50 [9]: > 53 µM (inactive)
- IC50 [10]: > 47.1 µM (inactive)

SMILES: Cc1ccc(C)c(S(=O)(=O)Nc2ccc(-n3cnnn3)cc2)c1
- AC50 [13]: > 70 µM (inactive)

SMILES: COc1ccccc1NC(=O)c1c(/N=C/c2c(O)ccc3ccccc23)cnn1C
- IC50 [1]: > 20 µM (inactive)

SMILES: COc1cc(/C=N/c2c(C)cc(C)cc2C)ccc1OC(C)=O
- EC50 [9]: > 53 µM (inactive)
- IC50 [10]: > 47.1 µM (inactive)

SMILES: Oc1ccc(N/C(S)=N/c2ccccc2)cc1
- IC50 [11]: 32.9 µM (active)
- IC50 (Large T antigen): 5.61 µM (active) and 8.33 µM (active)
- EC50 [12]: > 260 µM (inactive)

SMILES: COc1cc(/C=N/NC(=O)C(C)n2nnc3ccccc32)ccc1O (stereo not drawn)
- IC50 [11]: 25.5 µM (active)
- IC50 (Large T antigen): 19.8 µM (active)
- AC50 [3]: 0.332 µM (active)

SMILES: Sc1nnc(-c2[nH]nc3c2CCC3)n1/N=C/C=C/c1ccco1
- IC50 (Large T antigen): 18.1 µM (active)

SMILES: OC1=C(/C=N/c2ccc(O)cc2)CCCC1
- IC50 [11]: 12.5 µM (active)
- IC50 (Large T antigen): 6.66 µM (active)

SMILES: Cc1ccc2nc(N=C(N)NC(=O)NC3CCCCC3)nc(C)c2c1
- IC50 [1]: > 20 µM (inactive)
- EC50 (Streptokinase A): 52.7 µM (active)
